Experimental data published in patent publication US7981928B2, “Chemotherapy method using x-rays” (Nanodynamics, Inc., priority 2002, dated 2011).

Tests used:
[1] = system: cells; settings: cited from earlier work
[2] = system: mice; settings: cited from earlier work
[3] = system: neuroblastoma lines; assay: nuclear chemotherapy with 77BrdC on neuroblastoma lines; format: cell-based; settings: ten neuroblastoma lines tested; H4U blockage
Experimental: An investigation of a method called “nuclear chemotherapy” was done many years previously at Sloan-Kettering Research Institute in New York, by Dr. Chia-Gee Wang and Dr. Lawrence Helson. The research was done using ^77BrdC, where ^77Br (half-life at 57 hours) would undergo a K-capture and deliver 10^6 or more Gy at a small distance. The […] of BrdC to BrdU can be blocked by the non-toxic H4U and therefore excluding BrdC from being incorporated into the DNA pool. Certain transformed cells, on the other hand, would make use of a more primitive kinase to bypass the H4U blockage, and incorporate BrdC to form BrdU. The ^77Br was made by adding an α particle to ^75As in a facility in the U.K. ^77Br was obtained in liquid solution, and ^77BrdC was made. […] The cells simply stopped mitosis while continuing most of the cellular functions. The Auger electrons from the ^77BrdU delivered such a high dose of the DNA duplex that no cellular repair was possible.

Molecule: 7-DTPA-Paclitaxel
- retention of paclitaxel potency in the cells [1]: retain much of the paclitaxel potency

Molecule: O=C([O-])CN(CCN(CC(=O)[O-])CC(=O)O)CCN(CC(=O)[O-])CC(=O)O.[Gd+3] [Gd-DTPA]
- LD50 in mice [2]: ~10 mmol/kg

Molecule: Nc1nc(=O)n([C@H]2C[C@H](O)[C@@H](CO)O2)cc1[77Br] [^77BrdC]
- sensitivity of neuroblastoma lines [3]: two of the ten lines were sensitive
